Ends that are not written are not given here.

The test system of assay [1] is IL-2 transcription in Jurkat T cell line (NFATZ). The assay is described as follows: NFATZ Jurkat IL-2 promoter lacZ β-gal FACS assay. In kind it is cell-based. An excerpt: IL- 2 transcription was studied following activation with PMA and ionomycin. These two agents are known respectively to potentiate protein kinase C and calcium second messenger responses (including activation of CaN). Protein kinase C activates the Ras-Raf-1-Mek-MAP Kinase pathway that participates in induction of the nuclear component of NFAT. The increased calcium concentration activates calcineurin which, in turn, activates the cytoplasmic component of NFAT and allows translocation to the nucleus.
Each of the peptides was myristilated as described in Eichholtz et al., J. Biol. Chem., 268:1982-1986 (1993).
Incubation with forskolin/IBMX elevates intracellular cAMP concentrations (FIG. 4), thereby activating PKA. Finally, phorbol 12-myristate 13-acetate (PMA) (10 ng/ml) and ionomycin (2 μM) were added and incubations continued for 4 hr. Controls were incubated with PMA/ionomycin alone or forskolin/IBMX and PMA/ionomycin under conditions as described above. During the last 20 min of the PMA/ionomycin incubation, chloroquine (300 μM) was added to inhibit endogenous lysosomal β-gal activity. The cells were spun out and resuspended in 50 μl of culture medium to which 50 μl of fluorescein di-β-D-galactopyranoside (FDG) was added (0.1 mM final concentration; Molecular Probes). […] The lacZ β-gal activity was measured by flow cytometry configured for fluorescein analysis.

In a further assay the target is T1, CaN (Rattus norvegicus, UniProt P63329).
T1 construct: made in house; host or cells: Sf9 cells (baculovirus)
In words: CaN phosphatase activity toward 32P RII peptide substrate. To be noted: Ca2+/calmodulin dependent CaN 30 nM, 32P RII peptide substrate. The format is biochemical. Here is the method: (§1) To determine whether AKAP 79 peptide binding inhibits CaN activity, CaN phosphatase activity was assayed in the presence of recombinant AKAP 79. Briefly, recombinant AKAP 79 was expressed in E. coli as described in Carr et al., J. Biol. Chem., 267:16816-16823 (1992), incorporated herein by reference. CaN and the constitutively active truncation mutant CaN420 (a truncated, Ca^2+ /calmodulin independent constitutively active form of CaN (Perrino et al., J. Biol. Chem., in press)) were expressed in Sf9 cells and purified on calmodulin-Sepharose as described in Perrino et al., J. Biol Chem., 267:15965-15969 (1992), incorporated herein by reference. Phosphatase activity toward ^32 P RII peptide substrate was measured as described in Perrino et al., supra. CaN (30 nM), calmodulin (100 nM) and ^32 P RII peptide (22 μM) were incubated with AKAP 79 protein and AKAP 79 peptide (SEQ ID NO:1-amino acids 81-102) over the range of concentrations indicated in FIG. 1B. Calmodulin was omitted from CaN420 assays. ^32 P released from the substrate was measured in triplicate samples in three separate experiments by scintillation counting. The inhibition constant (Ki) of recombinant AKAP 79 for CaN was determined by linear regression analysis of data. Ki values for AKAP 79 peptide were estimated by determining the IC50 using a fixed substrate concentration at Km (42 μM).

Another assay deals with AKAP 79/RII binding. In words: Scintillation proximity assay of TRX-AKAP 79/3H-RII binding. Conditions: read-out: IC50 of inhibition of AKAP 79/RII binding. An excerpt: Initially, a thioredoxin TRX-AKAP 79 fusion protein expression plasmid was constructed. See, generally, LaVallie, et al., BIO/TECHNOLOGY 11:187-193 (1993). Briefly, a XhaI/HindIII thioredoxin fragment was subcloned into pUC 19 containing a lac Z gene and a tacZ promoter. The resulting plasmid was designated TRX F/S pUC19. In order to insert an AKAP 79 encoding sequence into TRX F/S pUC19, an NcoI site was created with an oligonucleotide (SEQ ID NO:32) having terminal SpeI and HindIII sequences. Following SpeI/HindIII digestion, the oligonucleotide was inserted into the vector and an NcoI/XhoI fragment encoding AKAP 79 was ligated in frame with the thioredoxin gene. The fusion protein was expressed in E. coli and immobilized on 96-well ScintiStrip plates (Wallac, Turbu, Finland) which contained a scintillator embedded in the solid support. […] When ^3 H-RII bound to AKAP 79, the label was brought sufficiently close to the support-embedded scintillator, resulting in emission detected in a MicroBeta scintillation counter.
The scintillation proximity assay (SPA) screening protocol described in Example 8 was employed to determine the ability of various chemicals to inhibit binding between AKAP 79 and ^3 H-RII. […] Percent binding was determined by the measuring the amount of radioactivity in each well compared to the amount of radioactivity in wells wherein only AKAP 79 and ^3 H-RII were introduced.

For the next assay, the system named is RII. The assay is described as follows: ELISA and modified ELISA, AKAP 79 binding to immobilized RII. How it is done: (§2) Specifically, in the first method, recombinant CaN A, expressed as described above, was added to wells of Immulon plates (Dynatech) in a 35 mM sodium bicarbonate/15 mM sodium carbonate buffer, pH 9.6. Proteins bound to the surface of the wells by plastic/protein interaction. As a positive control, RII, and a negative control, bovine serum albumin (BSA) were separately and similarly captured in individual wells and assayed in this method. Nonspecific sites in the wells were blocked with a buffer containing 2.5% milk in 50 mM sodium citrate and 145 mM sodium chloride. Full length TRX-AKAP 79 was added in a final volume of 100 μl and after up to 2 hours incubation, free and non-specific proteins were removed with several washes with PBS/0.5% Tween 20. A mouse anti-AKAP 79 monoclonal antibody, generated against recombinant AKAP 79, was added to each well, followed by addition of a horse radish peroxidase (HRP)-conjugated goat anti-mouse antibody. HRP substrate tetramethylbenzidine (TMB) was added and absorbance at 450 nm determined using a Dynatech 96 well plate reader.
In the modified ELISA, standard ELISA techniques were employed except that HRP-conjugated streptavidin was used to detect bound biotinylated AKAP 79 instead of an anti-AKAP 79 monoclonal antibody. Briefly, after incubation of immobilized CaN A with biotinylated AKAP 79, HRP-conjugated streptavidin was added for 30 minutes. Unbound protein was removed with multiple washes of PBS/0.05% Tween 20. Bound streptavidin was detected with HRP substrate TMB and absorbance measured at 450 nm using a Dynatech 96 well plate reader. As in the ELISA described above, RII was immobilized and assayed as a positive control, and BSA as a negative control.

Another assay addresses T2, CaN A (Rattus norvegicus, UniProt P63329).
T2 construct: the deletion mutant form of CaN A is used in the assays described above in place of full length CaN A; made in house; host or cells: Sf9 cells (baculovirus); construct from Vollum Institute
The assay is described as follows: ELISA and modified ELISA, AKAP 79 binding to immobilized CaN A. How it is done: Two different capture methods were used. In one method, CaN A was first captured on plates by passive coating, AKAP 79 or biotinylated AKAP 79 was added, and complex formation detected by either ELISA or by streptavidin-HRP. In another method, rabbit anti-mouse antibodies were first captured on plates, mouse anti-TRX antibodies added and captured, and TRX-AKAP 79 added and captured. This method was similar to the capture method used for AKAP 79/^3 H-RII SPA. Biotinylated CaN A was then added, and the complex detected by streptavidin-HRP.
as §2
In the modified ELISA, standard ELISA techniques were employed except that HRP-conjugated streptavidin was used to detect bound biotinylated AKAP 79 instead of an anti-AKAP 79 monoclonal antibody. Briefly, after incubation of immobilized CaN A with biotinylated AKAP 79, HRP-conjugated streptavidin was added for 30 minutes. […] Bound streptavidin was detected with HRP substrate TMB and absorbance measured at 450 nm using a Dynatech 96 well plate reader. […]

In a further assay the target is T3, CaN420 (Rattus norvegicus, UniProt P63329).
T3 construct: a truncated, Ca^2+ /calmodulin independent constitutively active form of CaN; made in house; host or cells: Sf9 cells (baculovirus)
The assay is described as follows: CaN420 phosphatase activity toward 32P RII peptide substrate. The format is biochemical. Conditions: calmodulin omitted. Here is the method:
as §1

The next assay has as its system PKC. The assay is described as follows: PKC activity assay with EGF receptor peptide substrate. In kind it is biochemical. How it is done:
In order to asses the ability of these peptides to modulate PKC activity, the following assay was performed in the presence and absence of AKAP 79 peptide fragments. PKC [50 nM dissolved in 50 mM tris-HCl (pH 7.4), 5 mM MgCl2 1.2 mM CaCl2, 1 mM DTT, 1 mM EGTA and 100 μg/ml PS] was incubated with EGF receptor peptide substrate (5 μM) at 30° C. for five minutes. Phosphorylation reaction was initiated by addition of 100 μM ^32 P-ATP (500 cpm/pmol) and the reaction allowed to proceed for ten minutes at 30° C. Aliquots of reaction mixture were removed and spotted into P81 filter paper and the reaction terminated by washing the filter paper with excess 75 mM phosphoric acid (three washes for three minutes each). After a final wash in ethanol, the p81 filters were dried and radioactivity was measured by liquid scintillation counting.

For a further assay, the system named is PKC/AKAP 79 interaction. The assay is described as follows: PKC overlay assay. The format is binding, rabbit. Here is the method: In order to determine if the 75 kDa protein identified may be the bovine homolog of AKAP 79, the PKC overlay assay was used to probe AKAP 79 and related fragments. Briefly, proteins were separated by SDS-polyacrylamide electrophoresis (SDS-PAGE) and blotted to nitrocellulose following standard protocols. Samples were blocked in Blotto [1 mg/ml bovine serum albumin (BSA), 5% dry milk in Tris-buffered saline (TBS)] and incubated for one hour at room temperature in assay buffer [TBS containing 1 mg/ml BSA, 1.2 mM calcium, 1 mM EGTA, 20 μg/ml phosphatidylserine (PS), 2 μg/ml leupeptin, 2 μg/ml pepstatin and 3 μg/ml of partially purified rabbit brain PKC]. Bound PKC was detected with monoclonal antibody M7, which recognizes both PKCα and β, following standard chemiluminescent detection methods.

As to “myristilated AKAP 75 peptide: myristilated peptide of amino acids 81-108 of AKAP 75 (SEQ ID NO:8) (SIKRLVTRRKRSESSKQQKPFKAKLQSE; also: myristoylated, place not given here)”, the “reduction of PMA/ionomycin induced β-gal activity” value in assay [1] (10 μM in the medium) is given as 40-50%.
Take “Ht31 peptide: Ht31 peptide (SEQ ID NO:4), blocks anchoring protein binding to RII (DLIEEAAVSRIVDAVIEEVKAAGA) [reference compound]”: the “inhibition of full-length CaN phosphatase activity” value with CaN is recorded as “not an inhibitor”. Also, the IC50 at AKAP 79/RII binding turned out to be 50 nM.
Consider “Asp-Leu-Ile-Glu-Glu-Ala-Ala-Ser-Arg-Ile-Val-Asp-Ala-Val-Ile-Glu-Gln-Val-Lys-Ala-Ala-Gly-Ala-Tyr (DLIEEAASRIVDAVIEQVKAAGAY; also: myristoylated, place not given here) [myristilated Ht31 peptide, amino acids 493-515 of the full length Ht31 protein, myristilated]”, for which, in assay [1] (100 μM myristilated peptide), the “reversal of forskolin/IBMX blockade of PMA/ionomycin induced β-gal activity” value is reported as “completely reversed”.
As to “AKAP 79/M108: biotinylated AKAP 79 truncation, first 108 amino terminal residues deleted”, in the assay on RII, the “recognition of immobilized RII” value is “specifically recognized”.
In the case of “AKAP 79/Met247: biotinylated AKAP 79 truncation, first 247 amino terminal amino acids deleted”, the “recognition of immobilized RII” value in the assay on RII is reported as “specifically recognized”. The “binding to immobilized CaN A” value in the assay with CaN A is reported as “no specific binding”.
The like results for “AKAP 79/Met159: biotinylated AKAP 79 truncation, first 159 amino terminal amino acids deleted” were, in that order, “specifically recognized” and “no specific binding”.
Turning to “AKAP 79: recombinant anchoring protein AKAP 79 expressed in E. coli”, the “inhibition of full-length CaN phosphatase activity” value with CaN is given as “non-competitive manner”. In addition, the “binding to immobilized CaN A” value with CaN A is given as “bound”. Moreover, the “inhibition of CaN420 phosphatase activity” value with CaN420 was “non-competitive manner”.
As to “unlabeled RII: unlabeled RII regulatory subunit of PKA, reference inhibitor”, the IC50 at AKAP 79/RII binding worked out at 1 nM.
On to “peptide containing residues 31-52: synthetic peptide of residues 31-52 of AKAP 79 (KASMLCFKRRKKAAKALKPKAG; UniProt P24588 31-52, looked up, fragment)”, for which, in the assay on PKC (CaM 15 μM, excess Ca2+), the “effect of incubation with CaM on inhibition of PKC” value is “prevented inhibition”. The “type of inhibition of PKC activity” value in the assay on PKC (EGF receptor peptide as substrate) is recorded as “mixed inhibition”. Also, the IC50 on PKC (read-out: IC50 of inhibition of PKC activity) came to 2000 nM. Moreover, the “block of PKC/AKAP 79 interaction” value in the assay with PKC/AKAP 79 interaction was “blocked”.

(Values after US6107104A, “Modulators of anchoring protein function” (ICOS Corporation, priority 1996, dated 2000).)
